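Five compound concentrations were applied to cells in 96-well plates for 48 hours; endpoints were derived by simple linear interpolation of the resulting dose-response curve. GI50 marks 50% less growth. TGI: concentration producing complete growth inhibition.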
Columns and labels:
Test in all cases: inhibition of tumour cell growth, NCI panel, 48 h
[1] = system: OVCAR-8 ovarian
[2] = system: MCF7 breast
[3] = system: SF-268 CNS
[4] = system: SN12C renal
[5] = system: UACC-257 melanoma
[6] = system: CCRF-CEM leukemia
[7] = system: U251 CNS
[8] = system: K-562 leukemia
[9] = system: SR leukemia
[10] = system: MOLT-4 leukemia
[11] = system: HT29 colon
[12] = system: SF-539 CNS
[13] = system: NCI-H460 lung
[14] = system: SK-MEL-2 melanoma
[15] = system: SK-MEL-28 melanoma
[16] = system: LOX IMVI melanoma
[17] = system: DU-145 prostate
[18] = system: ACHN renal
[19] = system: NCI-H226 lung
[20] = system: CAKI-1 renal
[21] = system: UO-31 renal
[22] = system: EKVX NSCLC
[23] = system: HOP-62 NSCLC
[24] = system: HCT-116 colon
[25] = system: NCI-H522 lung
[26] = system: HOP-92 NSCLC
[27] = system: A498 renal
[28] = system: MDA-MB-435
[29] = system: RXF 393 renal
[30] = system: UACC-62 melanoma
[31] = system: OVCAR-4 ovarian
[32] = system: A549 NSCLC
[33] = system: SW-620 colon
[34] = system: KM12 colon
[35] = system: HS 578T breast
[36] = system: MDA-MB-231 breast
[37] = system: SK-MEL-5 melanoma
[38] = system: SNB-75 CNS
[39] = system: HCT-15 colon
[40] = system: RPMI-8226 leukemia
[41] = system: PC-3 prostate
[42] = system: SF-295 CNS
[43] = system: TK-10 renal
[44] = system: BT-549 breast
[45] = system: 786-0 renal
[46] = system: IGROV1 ovarian
[47] = system: OVCAR-3 ovarian
[48] = system: HL-60(TB) leukemia
[49] = system: M14 melanoma
[50] = system: NCI-H23 lung
[51] = system: SNB-19 CNS
[52] = system: OVCAR-5 ovarian
[53] = system: NCI/ADR-RES ovarian
[54] = system: SK-OV-3 ovarian
[55] = system: COLO 205 colon
[56] = system: MALME-3M melanoma
[57] = system: HCC-2998 colon

COc1ccc(CN2C(=O)C(Cl)=C(Nc3cccc(O)c3)C2=O)cc1
GI50 [1]: 2.99 µM
TGI [1]: 15 µM
GI50 [2]: 3.64 µM
TGI [2]: 15.6 µM
GI50 [3]: 17.2 µM
TGI [3]: 45.8 µM
GI50 [4]: 4.03 µM
TGI [4]: 20.1 µM
GI50 [5]: 5.64 µM
TGI [5]: 19.2 µM
GI50 [6]: 0.748 µM
TGI [6]: 20.9 µM
GI50 [7]: 5.05 µM
TGI [7]: 21.1 µM
GI50 [8]: 0.349 µM
TGI [8]: 9.13 µM
GI50 [9]: 0.185 µM
TGI [9]: 0.465 µM
GI50 [10]: 0.501 µM
TGI [10]: 10.5 µM
GI50 [11]: 18 µM
TGI [11]: > 100 µM
GI50 [12]: 4.24 µM
TGI [12]: 15.9 µM
GI50 [13]: 14.6 µM
TGI [13]: 31.6 µM
GI50 [14]: 4.16 µM
TGI [14]: 24.5 µM
GI50 [15]: 13.3 µM
TGI [15]: > 100 µM
GI50 [16]: 5.7 µM
TGI [16]: 23 µM
GI50 [17]: 13.8 µM
TGI [17]: 33 µM
GI50 [18]: 10.9 µM
TGI [18]: 57.3 µM
GI50 [19]: 6.44 µM
TGI [19]: 50.5 µM
GI50 [20]: 1.68 µM
TGI [20]: 21.3 µM
GI50 [21]: 6.91 µM
TGI [21]: 95.1 µM
GI50 [22]: 21.5 µM
TGI [22]: 56 µM
GI50 [23]: 8.61 µM
TGI [23]: > 100 µM
GI50 [24]: 1.14 µM
TGI [24]: 19.8 µM
GI50 [25]: 2.31 µM
TGI [25]: 17.6 µM
GI50 [26]: 12.1 µM
TGI [26]: 59.6 µM
GI50 [27]: 14.2 µM
TGI [27]: 35.7 µM
GI50 [28]: 0.269 µM
TGI [28]: 1.7 µM
GI50 [29]: 2.16 µM
TGI [29]: 11.3 µM
GI50 [30]: 2.83 µM
TGI [30]: 21.1 µM
GI50 [31]: 45.1 µM
TGI [31]: > 100 µM
GI50 [32]: 3.15 µM
TGI [32]: 20.5 µM
GI50 [33]: 4.69 µM
TGI [33]: > 100 µM
GI50 [34]: 0.801 µM
TGI [34]: 21.6 µM
GI50 [35]: 9.62 µM
TGI [35]: 51.7 µM
GI50 [36]: 6.43 µM
TGI [36]: > 100 µM
GI50 [37]: 3.78 µM
TGI [37]: 17.7 µM
GI50 [38]: 6.73 µM
TGI [38]: > 100 µM
GI50 [39]: 2.05 µM
TGI [39]: 21.4 µM
GI50 [40]: 0.807 µM
TGI [40]: 11.7 µM
GI50 [41]: 4.39 µM
TGI [41]: 36.1 µM
GI50 [42]: 2.75 µM
TGI [42]: 31.2 µM
GI50 [43]: 3.77 µM
TGI [43]: 37 µM
GI50 [44]: 13.7 µM
TGI [44]: 45.4 µM
GI50 [45]: 4.23 µM
TGI [45]: > 100 µM
GI50 [46]: 0.591 µM
TGI [46]: 15.2 µM
GI50 [47]: 1.73 µM
TGI [47]: 23.5 µM
GI50 [48]: 1.29 µM
TGI [48]: 7.49 µM
GI50 [49]: 5.63 µM
TGI [49]: 75.7 µM

CC/C=C\C/C=C\C[C@H]1C/C=C2/C(=O)C=C[C@@H]2C/C=C\CCC(=O)O1
GI50 [1]: 1.14 µM
TGI [1]: 4.19 µM
GI50 [2]: 0.936 µM
TGI [2]: 7.51 µM
GI50 [3]: 1.54 µM
TGI [3]: 9.1 µM
GI50 [4]: 1.12 µM
TGI [4]: 9.69 µM
GI50 [5]: 1.85 µM
TGI [5]: 7.82 µM
GI50 [6]: 1.13 µM
TGI [6]: 7.05 µM
GI50 [7]: 1.16 µM
TGI [7]: 3.69 µM
GI50 [8]: 1.17 µM
TGI [8]: 9.1 µM
GI50 [10]: 0.976 µM
TGI [10]: 4.37 µM
GI50 [11]: 0.828 µM
TGI [11]: 2.04 µM
GI50 [12]: 0.995 µM
TGI [12]: 3.46 µM
GI50 [13]: 1.46 µM
TGI [13]: 16.3 µM
GI50 [14]: 0.871 µM
TGI [14]: 2.42 µM
GI50 [15]: 1.02 µM
TGI [15]: 3.14 µM
GI50 [16]: 0.563 µM
TGI [16]: 1.11 µM
GI50 [50]: 0.793 µM
TGI [50]: 2.79 µM
GI50 [17]: 1.19 µM
TGI [17]: 5.04 µM
GI50 [18]: 0.727 µM
TGI [18]: 1.49 µM
GI50 [51]: 3.15 µM
TGI [51]: 8.45 µM
GI50 [20]: 1.29 µM
TGI [20]: 6.35 µM
GI50 [21]: 1.36 µM
TGI [21]: 4.94 µM
GI50 [52]: 1.35 µM
TGI [52]: 4.95 µM
GI50 [22]: 1.51 µM
TGI [22]: 8.3 µM
GI50 [23]: 1.18 µM
TGI [23]: 4.65 µM
GI50 [24]: 0.634 µM
TGI [24]: 1.47 µM
GI50 [25]: 0.524 µM
TGI [25]: 1.42 µM
GI50 [26]: 3.93 µM
TGI [26]: 10.4 µM
GI50 [53]: 0.746 µM
TGI [53]: 1.91 µM
GI50 [54]: 7.18 µM
TGI [54]: 20.1 µM
GI50 [27]: 5.38 µM
TGI [27]: 10.2 µM
GI50 [28]: 0.912 µM
TGI [28]: 2.75 µM
GI50 [29]: 0.686 µM
TGI [29]: 1.56 µM
GI50 [30]: 0.767 µM
TGI [30]: 2.4 µM
GI50 [31]: 1.32 µM
TGI [31]: 5.66 µM
GI50 [55]: 1.04 µM
TGI [55]: 2.82 µM
GI50 [32]: 1.22 µM
TGI [32]: 10.9 µM
GI50 [33]: 1.65 µM
TGI [33]: 6.04 µM
GI50 [35]: 6.08 µM
TGI [35]: 33.2 µM
GI50 [36]: 1.07 µM
TGI [36]: 6.03 µM
GI50 [37]: 0.776 µM
TGI [37]: 2.1 µM
GI50 [38]: 1.4 µM
TGI [38]: 6.92 µM
GI50 [39]: 0.735 µM
TGI [39]: 2.15 µM
GI50 [40]: 0.847 µM
TGI [40]: 2.43 µM
GI50 [41]: 1.18 µM
TGI [41]: 4.36 µM
GI50 [56]: 1.96 µM
TGI [56]: 8.04 µM
GI50 [42]: 1.83 µM
TGI [42]: 6.86 µM
GI50 [43]: 1.26 µM
TGI [43]: 3.43 µM
GI50 [44]: 1.1 µM
TGI [44]: 3.61 µM
GI50 [45]: 1.4 µM
TGI [45]: 4.97 µM
GI50 [46]: 1.57 µM
TGI [46]: 5.9 µM
GI50 [57]: 0.871 µM
TGI [57]: 2.32 µM
GI50 [47]: 1.08 µM
TGI [47]: 3.52 µM
GI50 [48]: 1.22 µM
TGI [48]: 3.14 µM
GI50 [49]: 1.02 µM
TGI [49]: 4.61 µM

Reference: PubChem BioAssay (NCI)
